Results reported in patent publication US20130095122A1, “Peptides or Antibodies Which Bind to Melanoma Inhibitory Activity (MIA) Protein” (priority 2010, published 2013).

Legend:
[1] = test system: murine B16 melanoma cells; test: In vivo metastasis assay, Sig-AR71-HisTag expressing B16 clone injected into spleen; settings: mice injected with Sig-AR71-HisTag expressing clone
Procedure: To determine the effect of peptide AR71 on the metastatic potential of murine B16 melanoma cells in vivo, a previously developed mouse metastases model was used.^19 1×10^5 cells of the AR71-HisTag expressing B16 cell clone AR71-His K4 as well as the corresponding mock control cells were injected into the spleen of mice (n=8 for mock control cells as well as for AR71-HisTag K4 cells, respectively). After nine days, mice were sacrificed, the livers were resected and the number and size of visible black tumor nodules on the surface of the livers was noticed. Tissues were fixed in formalin and afterwards paraffin embedded sections were hematoxylin and eosin stained for histological analysis.
Nine days after injection of the cells into the spleen, the mice were sacrificed, the livers were resected and tissue sections were prepared. Here, the inventors used the stably transfected murine B16 melanoma cells with a Sig-AR71-HisTag containing construct. […] The interference of AR71-HisTag with MIA-MIA interaction was also confirmed in the HTFP assay using wells coated with MIA-biotin (data not shown). Subsequently, a Sig-AR71-HisTag clone as well as a corresponding mock control was injected into the spleen of C57B16 mice, respectively. […]

Mel Im melanoma cells = test: Boyden chamber invasion assay (MIA activity); type: cell-based, human
Procedure: Invasion assays were performed in Boyden Chambers containing polycarbonate filters with 8-μm pore size (Neuro Probe, Gaithersburg, Md., USA) essentially as described previously.^13 Filters were coated with matrigel, a commercially available reconstituted basement membrane (diluted 1:3 in H2O; BD Bioscience, Bradford, Mass., USA). The lower compartment was filled with fibroblast-conditioned medium used as a chemo attractant. Mel Im melanoma cells were harvested by trypsinization for 2 min at RT, resuspended in DMEM without FCS at a density 2.5×10^4 cells/mL, and placed in the upper compartment of the chamber. Except for the control experiment with untreated cells and experiments where cells were only treated with the respective peptide, MIA was added to the cell suspension at a final concentration of 200 ng/mL. Peptide AR71 (sequence: Ac-FHWRYPLPLPGQ-NH2) was used at a final concentration of 1 μM. MIA expressing murine B16 melanoma cells stably co-transfected with Sig-AR71-HisTag containing pCMX-PL1 vector^27 and an antibiotic resistance comprising plasmid (pCDNA3), and the respective mock control were also investigated for their ability to migrate. Therefore, cells were harvested by trypsinization for 2 min at RT, resuspended in DMEM without FCS at a density 2.5×10^4 cells/mL, and placed in the upper compartment of the chamber. After incubation at 37° C. for 4 h filters were removed. Cells adhering to the lower surface of the filter were fixed, stained, and counted. Experiments were carried out in triplicates and repeated at least three times.

MIA = biological target: T1, MIA (Homo sapiens, UniProt Q16674); test: NMR titration of 15N-labeled MIA with peptide; type: binding; settings: unlabeled peptide, increasing amounts
T1 sequence (Q16674 25-131): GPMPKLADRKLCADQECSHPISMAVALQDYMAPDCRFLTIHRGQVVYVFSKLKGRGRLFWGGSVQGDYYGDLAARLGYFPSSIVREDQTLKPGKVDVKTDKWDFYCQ
Procedure: All spectra were recorded at 300 K and pH 7 on a Bruker DRX600 spectrometer equipped with a pulsed field gradient triple resonance probe. Water suppression in experiments recorded on samples in H2O was achieved by incorporation of a Watergate sequence into the various pulse sequences.^28-30 2D ^1H-^15N HSQC spectra with reduced signal loss due to fast exchanging protons were recorded using procedures described previously.^31 All spectra were processed with NMRPipe and analyzed with NMRView.^32-33 Data handling was performed with NMRView. Structure visualisation and superimpositions were done with PyMol (Delano, W. L., The PyMol Molecular Graphics System (2002) Delano Scientific, Palo Alto, Calif., USA).
The NMR titration of MIA with AR71 consisted of monitoring changes in chemical shifts and line widths of the backbone amide resonances of uniformly ^15N-enriched MIA samples as a function of ligand concentration.^34-37

[2] = test system: murine B16 melanoma cells; test: In vivo metastasis assay, wt B16 cells injected into spleen, i.v. AR71 treatment; set-up: species or system mice; settings: i.v. 50 μg every 24 h
Procedure: Additionally, 1×10^5 wt mouse melanoma B16 cells suspended in a solution containing AR71 (1 mg/mL) and 0.9% NaCl, or NaCl alone for the control mice, respectively, were injected into the spleen of each animal (n=8 for treated mice, as well as for control without AR71). Peptide AR71 was injected i.v. (50 μg every 24 h). After nine days, the mice were sacrificed and the livers were excised. Following formalin fixation, tissues were embedded in paraffin. Afterwards, sections were prepared and stained using hematoxylin and eosin before being subjected to histological analysis.
Therefore, wild type murine B16 melanoma cells were injected into the spleen of C57B16 mice with the mice being subsequently treated with i.v. injections of AR71 (50 μg every 24 h). After nine days, the mice were sacrificed, the livers were resected and again tissue sections were prepared. […] Four representative histological liver sections (hematoxylin and eosin stained) of untreated and treated mice, respectively, are shown in FIG. 4E.

MIA protein dimer = biological target: T2, MIA protein dimer (Homo sapiens, UniProt Q16674); test: Western blot analysis of MIA dimer bands; type: biochemical; settings: MIA preincubated with 1 μM peptide (FIG. 2B)
T2 construct: made in house; host or cells: cell-free Rapid Translation System RTS 500 E. coli HY Disulfite Kit (Roche)
T2 sequence (Q16674 25-131): T1 sequence (Q16674 25-131)
Procedure: Protein samples were denaturated at 70° C. for 10 min after addition of reducing and denaturing Roti-Load buffer (Roth, Karlsruhe, Germany) and subsequently separated on sodium dodecyl sulfate 12.75% polyacrylamid gels (SDS-PAGE) (Invitrogen, Groningen, The Netherlands). In the multimerization studies, MIA protein (1 μg) was incubated with AR71 (2.5 μg) overnight at RT before being treated as described above. After transferring the proteins onto a polyvinylidene fluoride (PVDF) membrane (BioRad, Richmond, Va., USA), the membrane was blocked using 3% BSA/PBS for 1 h at RT and incubated with a 1:150 dilution of primary polyclonal rabbit anti MIA antibody (Biogenes, Berlin, Germany) in 3% BSA/PBS overnight at 4° C. After washing in PBS the membrane was incubated with a 1:2000 dilution of an […] coupled secondary antibody (Chemikon, Hofheim, Germany) for 2 h at RT. Finally, after washing steps, immunoreactions were visualized by nitro blue tetrazolium/5-bromo-4-chloro-3-indolyl phosphate (NBT/BCIP) (Invitrogen, Karlsruhe, Germany) staining.

Ac-FHWRYPLPLPGQ-NH2 [AR71, FHWRYPLPLPGQ]
adverse effects on other organs and tissues [1]: No adverse effects
neutralization of the MIA effect on cell invasion (Mel Im melanoma cells; MIA 200 ng/mL pre-incubated with peptide 1 μM, Mel Im cells (FIG. 2C)): complete neutralization of the effect caused by MIA
migratory behaviour of cells treated with peptide alone (Mel Im melanoma cells; peptide in absence of MIA, Mel Im cells): does not influence the migratory behaviour of melanoma cells
binding of peptide to MIA (chemical shift perturbations) (MIA): MIA binds to this peptide ligand
adverse effects on other organs and tissues ([2]; nine days): no adverse effects on other organs and tissues were observed
average number of metastases in the liver compared to untreated control mice ([2]; nine days (FIG. 4D)): significant reduction of the average number of metastases in the liver
reduction of MIA dimer bands (MIA protein dimer): strong reduction of the dimer bands
